The text below walks through data of patent US7501513B2, “Immunosuppressive effects of pteridine derivatives” (4 AZA Bioscience NV, priority 2003, dated 2009).

Molecules are shown by their SMILES.

The subject of one test is Peripheral blood mononuclear cells. Briefly: Mixed lymphocyte reaction (MLR) test. The format is cell-based, human. The settings on record: Homo sapiens, PBMC; Table 3; 50% suppression of the MLR. As to the method: Pteridine derivatives were first dissolved (10 mM) in dimethylsulfoxide (hereinafter referred as DMSO) and further diluted in culture medium before use for the following in vitro experiments. The commercially available culture medium consisted of RPMI-1640+10% foetal calf serum (FCS). Some pteridine derivatives described the previous examples were tested in the following lymphocyte activation tests:
(§1) Peripheral blood mononuclear cells (hereinafter referred as PBMC) were isolated from heparinized peripheral blood by density gradient centrifugation over Lymphoprep (Nycomed, Maorstua, Norway). Allogeneic PBMC or Eppstein-Barr Virus-transformed human B cells [commercially available under the trade name RPMI1788 (ATCC name CCL156)] which strongly express B7-1 and B7-2 antigens were used as stimulator cells after irradiation with 30 Gy. MLR was performed in triplicate wells. After 5 days incubation at 37° C., 1 μCi [^3H]-thymidine was added to each cup. After a further 16 hours incubation, cells were harvested and counted in a β-counter. Inhibition of proliferation by a compound (drug) described in some of the previous examples was counted using the formula:
[formula] wherein cpm is the thymidine count per minute. The MLR assay is regarded by those skilled in the art as an in vitro analogue of the transplant rejection since it is based on the recognition of allogeneic major histocompatibility antigens on the stimulator leukocytes, by responding lymphocytes. Assays for CD3 and CD 28
Pteridine derivatives were first dissolved (10 mM) in dimethylsulfoxide (hereinafter referred as DMSO) and further diluted in culture medium before use for the following in vitro experiments. The commercially available culture medium consisted of RPMI-1640+10% foetal calf serum (FCS). Some pteridine derivatives described in the previous examples (as indicated in table 3 below) were tested in the following mixed lymphocyte reaction (MLR) assay.
as §1, with “CCL156)]which” for “CCL156)] which”
[formula] wherein cpm is the thymidine count per minute. The MLR assay is regarded by those skilled in the art as an in vitro analogue of the transplant rejection since it is based on the recognition of allogeneic major histocompatibility antigens on the stimulator leukocytes, by responding lymphocytes.
What is called IC50 is the concentration that inhibits the measured activity by half. For `COCCOc1ccc(-c2cnc3nc(N)nc(N4CCOCC4)c3n2)cc1` [Example 110, 2-amino-4-morpholino-6-(4-(2-methoxyethoxy)-phenyl)pteridine], the IC50 worked out at 5.4 µM.
Compound `Nc1nc(N2CCOCC2)c2nc(-c3cccc(NC(=O)COc4ccccc4)c3)cnc2n1` [Example 90, 2-amino-4-morpholino-6-(3-phenoxyacetylaminophenyl)pteridine] had a half-inhibitory concentration (IC50) of 10 µM.
Still for that read-out and setting: in the case of `CCC(=O)Nc1ccc(-c2cnc3nc(N)nc(N4CCOCC4)c3n2)cc1` [Example 78, 2-amino-4-morpholino-6-(4-propionylaminophenyl)pteridine] it was 6.5 µM.
The same measure, in the same setting: in the case of `Nc1nc(N2CCOCC2)c2nc(-c3ccc(NC(=O)COc4ccccc4)cc3)cnc2n1` [Example 77, 2-amino-4-morpholino-6-(4-phenoxyacetylaminophenyl)pteridine] it was 2.5 µM.
`Nc1nc(N2CCOCC2)c2nc(-c3ccc(NC(=O)C4CCCCC4)cc3)cnc2n1` [Example 80, 2-amino-4-morpholino-6-(4-cyclohexanoylaminophenyl)pteridine] returned an IC50 of 4.1 µM.
In the case of `Nc1nc(N2CCOCC2)c2nc(-c3cccc(NC(=O)C4CCCCC4)c3)cnc2n1` [Example 92, 2-amino-4-morpholino-6-(3-cyclohexanoylaminophenyl)pteridine], the 50% inhibitory concentration (IC50) amounted to 2.9 µM.
In the case of `Nc1nc(N2CCOCC2)c2nc(-c3cccc(NC(=O)c4ccccc4)c3)cnc2n1` [Example 88, 2-amino-4-morpholino-6-(3-benzoylaminophenyl)pteridine], the 50% inhibitory concentration (IC50) was 4.9 µM.
As to `Nc1nc(N2CCOCC2)c2nc(-c3ccc(NC(=O)c4ccccc4)cc3)cnc2n1` [Example 76, 2-amino-4-morpholino-6-(4-benzoylaminophenyl)pteridine], the IC50 came out at 2.1 µM. This IC50 is about 2.3-fold lower than that of the compound before.
Take `Nc1cccc(-c2cnc3nc(N)nc(N4CCOCC4)c3n2)c1` [Example 75, 2-amino-4-morpholino-6-(3-aminophenyl)pteridine]: inhibition was half-maximal at 4.1 µM (IC50). This IC50 lies about 2-fold higher than the previous one.
On to `Nc1nc(N2CCOCC2)c2nc(-c3ccc(NC(=O)c4ccncc4)cc3)cnc2n1` [Example 83, 2-amino-4-morpholino-6-(4-isonicotinoylaminophenyl)pteridine], for which the half-maximal inhibitory concentration (IC50) turned out to be 3.9 µM. This IC50 and that of the compound before are within 1.5-fold of each other.
For `Nc1nc(N2CCOCC2)c2nc(-c3cccc(NC(=O)c4ccncc4)c3)cnc2n1` [Example 91, 2-amino-4-morpholino-6-(3-isonicotinoylaminophenyl)pteridine], the IC50 turned out to be 10 µM.
On the same count and under the same terms, in the case of `Nc1nc(N2CCOCC2)c2nc(-c3cccc(NS(=O)(=O)c4ccccc4)c3)cnc2n1` [Example 89, 2-amino-4-morpholino-6-(3-benzensulfonylaminophenyl)pteridine] it was 0.8 µM.
`Nc1nc(N2CCOCC2)c2nc(-c3cccc(NC(=O)COCc4ccccc4)c3)cnc2n1` [Example 96, 2-amino-4-morpholino-6-(3-benzyloxyacetylaminophenyl)pteridine]: half-maximal inhibition (IC50) required 4.1 µM. This IC50 is about 5.1-fold higher than that of the compound before.

The test is the same for the next values; noted with them: Table 3; 50% suppression of the MLR.
`COc1ccc(-c2cnc3nc(NCc4cccs4)nc(NCc4cccs4)c3n2)cc1OC` [Example 68, 2,4-di-(thienyl-2-methylamino)-6-(3,4-dimethoxy-Phenyl) pteridine] registered an IC50 of 0.8 µM.
Same read-out and setting: under `Nc1nc(N2CCOCC2)c2nc(-c3ccc(NC(=O)c4cccc5ccccc45)cc3)cnc2n1` [Example 84, 2-amino-4-morpholino-6-(4-naphtoylaminophenyl)pteridine] stands 4 µM; under `CC(C)(C)OC(=O)N[C@H](Cc1ccccc1)C(=O)Nc1cccc(-c2cnc3nc(N)nc(N4CCOCC4)c3n2)c1` [Example 99, 2-amino-4-morpholino-6-[3-Boc-(D)-phenylalanine-aminophenyl]pteridine], 4.1 µM.
On the same count and under the same terms, under `CC(=O)Nc1cccc(-c2cnc3nc(N)nc(N4CCOCC4)c3n2)c1` [Example 73, 2-amino-4-morpholino-6-(3-acetanilide)pteridine] stands 6.4 µM; under `Nc1nc(N2CCOCC2)c2nc(-c3ccc(NC(=O)c4ccco4)cc3)cnc2n1` [Example 79, 2-amino-4-morpholino-6-(4-furoylaminophenyl)pteridine], 7.8 µM.

A further test deals with human TNF-α. Briefly: TNF-α assay: suppression of TNF-α production by LPS-stimulated PBMC (ELISA). The settings on record: Homo sapiens, PBMC; Table 2; LPS 1 μg/ml, 72 hours. The format is cell-based. As to the method: Peripheral blood mononuclear cells (herein referred as PBMC), in response to stimulation by lipopolysaccharide (LPS), a gram-negative bacterial endotoxin, produce various […], in particular human TNF-α and IL-1 β. Inhibition of the activation of PBMC can therefore be measured by the level of suppression of the production of TNF-α or IL-1 β by PBMC in response to stimulation by LPS.
(§2) Such inhibition measurement was performed as follows: PBMC were isolated from heparinized peripheral blood by density gradient centrifugation over Lymphoprep (commercially available from Nycomed, Norway). LPS was then added to the PMBC suspension in complete medium (10^6 cells/ml) at a final concentration of 1 μg/ml. The pteridine derivative to be tested was added at different concentrations (0.1 μM, 1 μM and 10 μM) and the cells were incubated at 37° C. for 72 hours in 5% CO2. The supernatants were collected, then TNF-α and/or IL-1 β concentrations were measured with respectively an anti-TNF-α antibody or an anti-IL-1 β antibody in a sandwich ELISA (Duo Set ELISA human TNFα, commercially available from R&D Systems, United Kingdom). The calorimetric reading of the ELISA was measured by a Multiskan RC plate reader (commercially available from ThermoLabsystems, Finland) at 450 nm (reference wavelength: 690 nm). Data analysis was performed with Ascent software 2.6. (also from ThermoLabsystems, Finland): a standard curve (recombinant human TNFα) was drawn and the amount (pg/ml) of each sample on the standard curve was determined.
The % suppression of human TNFα production or human IL-1 β by the pteridine derivatives of the invention (drugs) was calculated using the formula: […]
Peripheral blood mononuclear cells (herein referred as PBMC), in response to stimulation by lipopolysaccharide (hereinafter LPS), a gram-negative bacterial endotoxin, produce various […], in particular human TNF-α. Inhibition of the activation of PBMC can therefore be measured by the level of suppression of the production of TNF-α by PBMC in response to stimulation by LPS.
as §2, with “TNF-α” for “TNF-α and/or IL-1 β”, “with” for “with respectively”, “anti-TNF-α” for “anti-TNF-α antibody or an anti-IL-1 β”, “TNF-α,” for “TNFα,”, “colorimetric” for “calorimetric”
The % suppression of human TNFα production by the pteridine derivatives of the invention (drugs) was calculated using the formula: […]
Background: An ELISA detects its analyte on a solid surface through an enzyme-linked reagent.
For the compound `CC(C)Oc1nc(N)nc2ncc(-c3ccc(C(F)(F)F)cc3)nc12` [Example 36, 2-amino-6-(p-trifluoromethylphenyl)-4-isopropoxypteridine], 9.1 µM corresponded to half-maximal inhibition (IC50). In other words, the single-digit micromolar range.
In turn, `CC(C)Oc1nc(N)nc2ncc(-c3ccc(F)c(F)c3)nc12` [Example 37, 2-amino-6-(3,4-difluorophenyl)-4-isopropoxypteridine] gave an IC50 of 6.6 µM.
Same read-out and setting: under `CCOc1nc(N)nc2ncc(-c3ccccc3OC)nc12` [Example 14, 2-amino-6-(o-methoxyphenyl)-4-ethoxy-pteridine] stands above 10 µM; under `CCOc1ccc(-c2cnc3nc(N)nc(OC(C)C)c3n2)cc1` [Example 39, 2-amino-6-(p-ethoxyphenyl)-4-isopropoxypteridine], above 10 µM.

Staying with this test, now noted: Table 2; LPS 1 μg/ml, 72 hours.
`COc1ccc(-c2cnc3nc(N)nc(OC(C)C)c3n2)cc1` [Example 38] came in with an IC50 of 6.2 µM.
The compound `CC(C)Oc1nc(N)nc2c1ncc[n+]2[O-]` [Example 10, 2-amino-4-isopropoxypteridine-N^8-oxide] yielded an IC50 of 4 µM.

Staying with this test, now noted: Table 4; LPS 1 μg/ml, 72 hours.
`COc1ccc(-c2cnc3nc(N)nc(NCc4ccccc4)c3n2)cc1OC` [Example 113] had an IC50 of 6.5 µM.
Same read-out and setting: under `CCOC(=O)COc1ccc(-c2cnc3nc(N)nc(N4CCOCC4)c3n2)cc1` [Example 109, 2-amino-4-morpholino-6-(4-phenoxy-acetic acid ethyl ester) pteridine] stands 0.6 µM.
Same read-out and setting: under `CCOC(=O)CCC(=O)Nc1cccc(-c2cnc3nc(N)nc(N4CCOCC4)c3n2)c1` [Example 94, 2-amino-4-morpholino-6-(3-ethylsuccinylaminophenyl)pteridine] stands 5.5 µM; under `COc1ccc(-c2cnc3nc(N)nc(N4CC=CCC4)c3n2)cc1OC` [Example 117], 0.5 µM; under `CCOC(=O)CCCOc1ccc(-c2cnc3nc(N)nc(N4CCOCC4)c3n2)cc1` [Example 108, 2-amino-4-morpholino-6-(4-phenoxy-butyric acid ethyl ester) pteridine], 0.9 µM.
